Laboratory results from ChEMBL document CHEMBL4806968, “Hipk inhibitors and methods of use thereof” (2020).
Active and inactive are the calls of the source. The calls are words filed in the database; no cut-off is given here.

Key:
[1] = target: Ephrin type-A receptor 5 (Homo sapiens) (UniProt P54756); assay: Inhibition of EPH-A5 (unknown origin) at 0.5 uM relative to control
[2] = target: Angiopoietin-1 receptor (Homo sapiens) (UniProt Q02763); assay: Inhibition of TIE2 (unknown origin) at 0.5 uM relative to control
[3] = target: Ephrin type-A receptor 4 (Homo sapiens) (UniProt P54764); assay: Inhibition of EPHA4 (unknown origin) at 0.5 uM relative to control
[4] = test system: MDA-MB-231; assay: Inhibition of cell migration in human MDA-MB-231 cells; format: functional, cell-based
[5] = target: Homeodomain-interacting protein kinase 2 (Homo sapiens) (UniProt Q9H2X6); assay: Inhibition of HIPK2 (unknown origin) assessed as effect on HIPK2 protein level by Western blotting analysis
[6] = target: Vascular endothelial growth factor receptor 2 (Homo sapiens) (UniProt P35968); assay: Inhibition of KDR (unknown origin) at 0.5 uM relative to control
[7] = test system: MDA-MB-231; assay: Inhibition of FAK/pFAK protein expression in human MDA-MB-231 cells by Western blotting analysis; format: functional, cell-based
[8] = target: Homeodomain-interacting protein kinase 1 (Homo sapiens) (UniProt Q86Z02); assay: Inhibition of HIPK1 (unknown origin) assessed as effect on HIPK1 protein level by Western blotting analysis
[9] = target: Ephrin type-A receptor 7 (Homo sapiens) (UniProt Q15375); assay: Inhibition of EPHA7 (unknown origin) at 0.5 uM relative to control
[10] = target: Mitogen-activated protein kinase 14 (Homo sapiens) (UniProt Q16539); assay: Inhibition of p38alpha (unknown origin) at 0.5 uM relative to control
[11] = target: T1, Serine/threonine-protein kinase TAO3 (Homo sapiens) (UniProt Q9H2K8); assay: Inhibition of TAOK3 (unknown origin) at 0.5 uM relative to control
T1 sequence (whole entry): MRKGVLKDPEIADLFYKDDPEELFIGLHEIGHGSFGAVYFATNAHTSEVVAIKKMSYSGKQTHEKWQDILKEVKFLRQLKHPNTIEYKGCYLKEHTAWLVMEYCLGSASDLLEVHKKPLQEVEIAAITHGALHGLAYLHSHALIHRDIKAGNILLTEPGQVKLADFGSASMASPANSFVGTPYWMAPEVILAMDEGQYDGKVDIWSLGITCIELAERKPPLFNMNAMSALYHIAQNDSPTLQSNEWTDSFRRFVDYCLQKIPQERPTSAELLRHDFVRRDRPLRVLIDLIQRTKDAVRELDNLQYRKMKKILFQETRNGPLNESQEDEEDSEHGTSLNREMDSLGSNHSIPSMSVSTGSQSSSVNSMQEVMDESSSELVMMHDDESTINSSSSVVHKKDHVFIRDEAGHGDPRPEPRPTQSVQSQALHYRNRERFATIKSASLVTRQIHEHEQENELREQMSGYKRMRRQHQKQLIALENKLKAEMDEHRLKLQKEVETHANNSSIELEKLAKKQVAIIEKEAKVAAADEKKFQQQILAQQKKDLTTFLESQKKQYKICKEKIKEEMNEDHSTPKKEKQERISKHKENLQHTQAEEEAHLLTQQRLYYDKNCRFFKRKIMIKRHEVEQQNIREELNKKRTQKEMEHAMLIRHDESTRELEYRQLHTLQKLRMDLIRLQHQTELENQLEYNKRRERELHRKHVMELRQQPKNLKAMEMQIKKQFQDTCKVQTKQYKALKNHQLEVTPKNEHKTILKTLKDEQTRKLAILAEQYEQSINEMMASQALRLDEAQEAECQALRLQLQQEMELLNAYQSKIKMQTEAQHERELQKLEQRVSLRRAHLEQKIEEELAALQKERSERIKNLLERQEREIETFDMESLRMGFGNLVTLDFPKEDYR

[12] = target: Receptor-interacting serine/threonine-protein kinase 2 (Homo sapiens) (UniProt O43353); assay: Inhibition of RIPK2 (unknown origin) at 0.5 uM relative to control
[13] = target: T2, Ephrin type-A receptor 8 (Homo sapiens) (UniProt P29322); assay: Inhibition of EPHA8 (unknown origin) at 0.5 uM relative to control
T2 sequence (whole entry): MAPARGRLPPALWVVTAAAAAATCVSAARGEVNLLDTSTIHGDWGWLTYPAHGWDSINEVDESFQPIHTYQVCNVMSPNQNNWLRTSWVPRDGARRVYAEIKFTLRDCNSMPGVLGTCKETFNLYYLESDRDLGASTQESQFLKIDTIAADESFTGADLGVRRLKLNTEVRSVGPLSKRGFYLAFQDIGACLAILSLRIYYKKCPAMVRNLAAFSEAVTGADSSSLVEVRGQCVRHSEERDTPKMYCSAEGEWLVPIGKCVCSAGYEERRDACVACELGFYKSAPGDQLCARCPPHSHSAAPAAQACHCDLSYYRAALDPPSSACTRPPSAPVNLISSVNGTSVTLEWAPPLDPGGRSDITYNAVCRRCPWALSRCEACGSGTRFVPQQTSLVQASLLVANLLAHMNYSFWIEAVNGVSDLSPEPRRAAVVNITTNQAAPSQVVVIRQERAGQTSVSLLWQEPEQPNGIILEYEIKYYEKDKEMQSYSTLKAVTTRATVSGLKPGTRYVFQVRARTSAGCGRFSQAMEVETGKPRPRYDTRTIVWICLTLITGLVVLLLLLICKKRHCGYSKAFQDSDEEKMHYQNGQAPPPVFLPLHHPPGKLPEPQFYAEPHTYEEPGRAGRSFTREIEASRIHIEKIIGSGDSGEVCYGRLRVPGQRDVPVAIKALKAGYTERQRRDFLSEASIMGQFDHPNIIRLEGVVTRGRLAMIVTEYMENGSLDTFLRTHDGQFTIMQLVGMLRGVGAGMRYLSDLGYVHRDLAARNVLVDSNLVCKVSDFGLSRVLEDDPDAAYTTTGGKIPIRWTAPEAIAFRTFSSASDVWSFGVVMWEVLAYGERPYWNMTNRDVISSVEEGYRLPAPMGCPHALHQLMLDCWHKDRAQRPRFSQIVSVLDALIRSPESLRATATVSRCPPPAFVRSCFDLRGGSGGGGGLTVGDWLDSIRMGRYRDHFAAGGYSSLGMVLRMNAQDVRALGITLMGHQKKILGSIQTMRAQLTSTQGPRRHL

Homeodomain-interacting protein kinase 1 (Homo sapiens), sequence (Q86Z02 whole entry, looked up): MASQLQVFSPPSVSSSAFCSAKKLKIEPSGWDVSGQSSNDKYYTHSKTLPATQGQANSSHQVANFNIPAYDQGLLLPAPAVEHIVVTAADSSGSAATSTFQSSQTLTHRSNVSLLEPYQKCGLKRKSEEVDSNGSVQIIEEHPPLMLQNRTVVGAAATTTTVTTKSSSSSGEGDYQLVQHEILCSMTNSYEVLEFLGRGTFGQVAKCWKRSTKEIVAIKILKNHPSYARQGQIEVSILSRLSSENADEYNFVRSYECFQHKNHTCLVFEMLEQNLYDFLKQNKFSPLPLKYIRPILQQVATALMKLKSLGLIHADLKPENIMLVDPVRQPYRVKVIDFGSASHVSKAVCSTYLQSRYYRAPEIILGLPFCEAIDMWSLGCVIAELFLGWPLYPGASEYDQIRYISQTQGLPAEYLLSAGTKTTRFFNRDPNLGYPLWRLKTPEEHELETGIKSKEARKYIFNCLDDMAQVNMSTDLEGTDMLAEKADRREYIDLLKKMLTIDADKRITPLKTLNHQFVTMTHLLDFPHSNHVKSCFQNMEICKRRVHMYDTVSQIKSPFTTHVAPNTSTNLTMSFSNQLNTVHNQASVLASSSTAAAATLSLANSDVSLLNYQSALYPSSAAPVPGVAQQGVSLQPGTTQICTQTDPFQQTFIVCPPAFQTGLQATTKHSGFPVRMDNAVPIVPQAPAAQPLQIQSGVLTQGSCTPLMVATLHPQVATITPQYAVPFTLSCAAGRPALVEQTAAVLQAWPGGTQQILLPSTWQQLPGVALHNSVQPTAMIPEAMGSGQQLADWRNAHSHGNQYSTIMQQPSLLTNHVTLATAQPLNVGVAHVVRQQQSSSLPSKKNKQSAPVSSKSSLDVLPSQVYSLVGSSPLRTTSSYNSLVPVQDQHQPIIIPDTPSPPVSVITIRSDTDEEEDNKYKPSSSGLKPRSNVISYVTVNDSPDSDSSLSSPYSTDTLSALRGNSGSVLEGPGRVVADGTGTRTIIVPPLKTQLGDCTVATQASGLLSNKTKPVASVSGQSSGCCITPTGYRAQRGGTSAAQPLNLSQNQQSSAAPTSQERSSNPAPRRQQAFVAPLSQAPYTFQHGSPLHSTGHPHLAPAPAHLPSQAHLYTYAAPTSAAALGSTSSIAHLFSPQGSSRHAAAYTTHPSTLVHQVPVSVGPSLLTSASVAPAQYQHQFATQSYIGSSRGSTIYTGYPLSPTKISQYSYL
Ephrin type-A receptor 7 (Homo sapiens), sequence (Q15375 28-998 limits assumed): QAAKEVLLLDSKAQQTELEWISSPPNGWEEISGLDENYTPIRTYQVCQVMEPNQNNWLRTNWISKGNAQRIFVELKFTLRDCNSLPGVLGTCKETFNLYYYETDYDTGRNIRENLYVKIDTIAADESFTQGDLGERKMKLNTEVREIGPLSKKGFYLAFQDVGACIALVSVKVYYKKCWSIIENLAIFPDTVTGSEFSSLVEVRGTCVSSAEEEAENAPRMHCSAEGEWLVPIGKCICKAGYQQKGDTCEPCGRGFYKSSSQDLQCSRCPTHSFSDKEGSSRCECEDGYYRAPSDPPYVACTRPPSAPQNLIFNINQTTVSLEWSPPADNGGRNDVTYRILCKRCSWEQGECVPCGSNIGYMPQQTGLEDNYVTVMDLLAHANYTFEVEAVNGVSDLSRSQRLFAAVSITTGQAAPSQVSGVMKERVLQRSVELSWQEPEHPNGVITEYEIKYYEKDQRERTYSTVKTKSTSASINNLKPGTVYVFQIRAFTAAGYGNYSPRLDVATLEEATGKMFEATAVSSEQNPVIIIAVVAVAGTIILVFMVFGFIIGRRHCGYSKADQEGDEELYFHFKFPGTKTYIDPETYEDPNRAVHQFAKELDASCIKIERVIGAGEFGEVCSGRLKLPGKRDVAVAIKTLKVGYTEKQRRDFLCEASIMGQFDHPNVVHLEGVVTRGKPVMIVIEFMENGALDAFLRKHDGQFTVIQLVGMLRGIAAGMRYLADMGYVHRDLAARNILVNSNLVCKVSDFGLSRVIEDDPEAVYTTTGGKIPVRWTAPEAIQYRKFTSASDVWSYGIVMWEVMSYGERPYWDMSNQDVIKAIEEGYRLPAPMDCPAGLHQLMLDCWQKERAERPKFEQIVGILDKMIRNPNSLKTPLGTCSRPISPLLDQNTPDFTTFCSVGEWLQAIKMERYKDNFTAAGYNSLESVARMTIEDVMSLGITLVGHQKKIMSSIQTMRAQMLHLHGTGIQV
Receptor-interacting serine/threonine-protein kinase 2 (Homo sapiens), sequence (O43353 whole entry): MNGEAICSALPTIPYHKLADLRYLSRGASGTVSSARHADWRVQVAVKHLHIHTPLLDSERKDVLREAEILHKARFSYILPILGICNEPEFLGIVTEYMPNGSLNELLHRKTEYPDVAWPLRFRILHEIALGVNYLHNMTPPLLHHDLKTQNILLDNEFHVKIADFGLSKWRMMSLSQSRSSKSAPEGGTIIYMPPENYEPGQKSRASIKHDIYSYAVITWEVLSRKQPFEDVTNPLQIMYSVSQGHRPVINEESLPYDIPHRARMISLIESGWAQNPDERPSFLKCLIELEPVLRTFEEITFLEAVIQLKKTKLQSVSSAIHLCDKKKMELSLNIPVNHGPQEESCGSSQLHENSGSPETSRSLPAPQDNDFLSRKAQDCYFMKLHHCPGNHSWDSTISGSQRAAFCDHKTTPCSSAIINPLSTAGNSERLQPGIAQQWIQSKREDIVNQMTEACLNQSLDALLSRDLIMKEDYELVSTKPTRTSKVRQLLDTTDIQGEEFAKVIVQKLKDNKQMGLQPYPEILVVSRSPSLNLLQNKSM
Ephrin type-A receptor 4 (Homo sapiens), sequence (P54764 whole entry): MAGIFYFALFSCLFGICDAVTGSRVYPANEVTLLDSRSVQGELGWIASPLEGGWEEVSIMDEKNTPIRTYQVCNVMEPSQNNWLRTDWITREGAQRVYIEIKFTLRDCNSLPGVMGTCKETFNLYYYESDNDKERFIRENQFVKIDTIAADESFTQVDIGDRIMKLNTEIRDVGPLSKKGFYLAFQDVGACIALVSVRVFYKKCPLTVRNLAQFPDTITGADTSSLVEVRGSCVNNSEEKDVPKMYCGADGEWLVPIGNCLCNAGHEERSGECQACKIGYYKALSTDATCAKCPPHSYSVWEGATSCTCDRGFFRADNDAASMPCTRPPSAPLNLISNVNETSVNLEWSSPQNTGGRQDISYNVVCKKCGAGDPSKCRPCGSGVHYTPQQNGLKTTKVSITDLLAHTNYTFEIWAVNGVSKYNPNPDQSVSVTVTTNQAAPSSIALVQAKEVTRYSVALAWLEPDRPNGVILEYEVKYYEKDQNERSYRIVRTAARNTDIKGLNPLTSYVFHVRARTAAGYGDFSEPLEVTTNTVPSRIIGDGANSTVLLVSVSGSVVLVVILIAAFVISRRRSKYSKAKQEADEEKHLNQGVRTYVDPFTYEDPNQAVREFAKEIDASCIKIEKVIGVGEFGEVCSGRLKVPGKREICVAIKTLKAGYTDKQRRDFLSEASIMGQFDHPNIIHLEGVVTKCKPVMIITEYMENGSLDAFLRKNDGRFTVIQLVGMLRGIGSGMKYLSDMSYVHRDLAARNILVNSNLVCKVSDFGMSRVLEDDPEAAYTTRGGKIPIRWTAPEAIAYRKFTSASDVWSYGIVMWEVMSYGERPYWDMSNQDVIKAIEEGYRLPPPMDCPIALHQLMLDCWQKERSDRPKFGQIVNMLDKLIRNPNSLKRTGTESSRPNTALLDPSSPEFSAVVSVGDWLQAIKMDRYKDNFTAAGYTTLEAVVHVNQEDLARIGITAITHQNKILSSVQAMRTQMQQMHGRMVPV
Ephrin type-A receptor 5 (Homo sapiens), sequence (P54756 whole entry): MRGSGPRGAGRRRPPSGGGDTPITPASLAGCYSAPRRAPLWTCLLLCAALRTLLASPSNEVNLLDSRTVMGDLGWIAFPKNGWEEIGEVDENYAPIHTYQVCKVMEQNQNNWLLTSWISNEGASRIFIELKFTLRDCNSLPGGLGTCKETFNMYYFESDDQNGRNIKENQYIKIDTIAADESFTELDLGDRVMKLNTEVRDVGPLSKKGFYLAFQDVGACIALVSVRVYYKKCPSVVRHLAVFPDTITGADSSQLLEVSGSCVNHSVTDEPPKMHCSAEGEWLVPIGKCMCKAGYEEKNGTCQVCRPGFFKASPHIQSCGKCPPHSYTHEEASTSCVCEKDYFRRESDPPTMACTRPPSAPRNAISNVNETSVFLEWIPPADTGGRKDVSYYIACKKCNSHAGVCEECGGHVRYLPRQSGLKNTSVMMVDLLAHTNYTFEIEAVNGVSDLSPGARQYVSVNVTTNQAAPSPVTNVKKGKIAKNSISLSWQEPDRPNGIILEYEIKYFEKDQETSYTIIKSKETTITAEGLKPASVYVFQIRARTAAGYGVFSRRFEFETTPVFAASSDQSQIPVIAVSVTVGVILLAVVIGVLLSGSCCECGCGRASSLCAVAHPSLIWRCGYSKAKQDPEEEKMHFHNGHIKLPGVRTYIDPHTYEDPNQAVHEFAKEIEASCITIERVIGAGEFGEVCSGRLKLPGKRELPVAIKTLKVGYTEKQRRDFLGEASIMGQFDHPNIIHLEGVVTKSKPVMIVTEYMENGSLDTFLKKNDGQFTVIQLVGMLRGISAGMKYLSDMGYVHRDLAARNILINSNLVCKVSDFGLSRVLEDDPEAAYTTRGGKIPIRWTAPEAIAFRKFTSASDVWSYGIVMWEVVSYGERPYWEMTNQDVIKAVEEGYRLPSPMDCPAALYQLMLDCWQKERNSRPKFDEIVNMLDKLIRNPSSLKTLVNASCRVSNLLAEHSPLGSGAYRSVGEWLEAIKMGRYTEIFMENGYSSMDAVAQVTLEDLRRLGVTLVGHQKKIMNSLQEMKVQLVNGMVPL
Mitogen-activated protein kinase 14 (Homo sapiens), sequence (Q16539 whole entry): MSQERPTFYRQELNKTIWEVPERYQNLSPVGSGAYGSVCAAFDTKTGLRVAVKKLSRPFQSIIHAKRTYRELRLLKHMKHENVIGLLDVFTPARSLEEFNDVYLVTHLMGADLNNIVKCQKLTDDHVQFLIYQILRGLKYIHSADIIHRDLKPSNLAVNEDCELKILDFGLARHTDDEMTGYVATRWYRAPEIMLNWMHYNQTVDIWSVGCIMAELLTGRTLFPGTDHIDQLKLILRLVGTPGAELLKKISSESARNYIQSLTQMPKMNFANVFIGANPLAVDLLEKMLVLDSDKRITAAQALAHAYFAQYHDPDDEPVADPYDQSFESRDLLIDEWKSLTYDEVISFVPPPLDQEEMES

CNC(=O)c1cc(Oc2ccc(NC(=O)c3nc(SC)[nH]c3-c3ccc(F)cc3)cc2)ccn1
inhibition [1]: 85% | inhibition [2]: 88% | inhibition [3]: 92% | inhibition [4]: Active | Activity [5]: inactive | inhibition [6]: 95% | inhibition [7]: Active | Activity [8]: inactive

CSc1nc(C(=O)Nc2ccc(Oc3cc4cnn(C)c4cc3Br)cc2)c(-c2ccc(F)cc2)o1
inhibition [2]: 25% | inhibition [9]: 22% | inhibition [10]: 25%

CNC(=O)c1cc(Oc2ccc(NC(=O)c3nc(NC)sc3-c3ccc(F)cc3)cc2)ccn1
inhibition [11]: 55% | inhibition [1]: 50% | inhibition [2]: 43% | inhibition [9]: 60% | inhibition [12]: 40%

CNC(=O)c1cc(Oc2ccc(NC(=O)c3nc(SC)oc3-c3ccc(F)cc3)cc2)ccn1
inhibition [11]: 39% | inhibition [9]: 41% | inhibition [4]: Active | inhibition [13]: 54% | inhibition [10]: 65% | Activity [5]: inactive | inhibition [7]: Active | inhibition [12]: 63% | Activity [8]: inactive

CNC(=O)c1cc(Oc2ccc(NC(=O)c3nc(C(F)(F)F)sc3-c3ccc(F)cc3)cc2)ccn1
inhibition [6]: 53%

CNC(=O)c1cc(Oc2ccc(NC(=O)c3nc(S(C)(=O)=O)sc3-c3ccc(F)cc3)cc2)ccn1
inhibition [1]: 21% | inhibition [2]: 53% | inhibition [3]: 18% | inhibition [4]: Active | inhibition [13]: 54% | inhibition [10]: 15% | Activity [5]: inactive | inhibition [6]: 27% | inhibition [7]: Active | Activity [8]: inactive

CNC(=O)c1cc(Oc2ccc(NC(=O)c3nc(SC)oc3-c3ccc(F)cc3)cc2F)ccn1
inhibition [11]: 40% | inhibition [3]: 38% | inhibition [9]: 53% | inhibition [10]: 63% | inhibition [12]: 51%

CNC(=O)c1cc(Oc2ccc(NC(=O)c3n[nH]nc3-c3ccc(F)cc3)cc2)ccn1
inhibition [13]: 51% | inhibition [6]: 25% | inhibition [12]: 65%
